Source: US10633371B2, “EZH2 inhibitors and uses thereof” (Dana-Farber Cancer Institute, Inc., priority 2016, dated 2020)

What was measured:
EZH2 = EZH2 (Homo sapiens, UniProt Q15910); assay: Inhibitory activity and time dependence against EZH2 (FIG. 2A); assay type: biochemical; conditions: result in words
From the text: (§1) As depicted in FIG. 2A, Compounds EZ-40, EZ-49, EZ-51, EZ-52, EZ-53, and JQ-80 were profiled for inhibitory activity and time dependence against EZH1 and EZH2.

EZH1 = EZH1 (Homo sapiens, UniProt Q92800); assay: Inhibitory activity and time dependence against EZH1 (FIG. 2A); assay type: biochemical; conditions: result in words
From the text: as §1

Chain of EZH1 (Q92800 whole entry): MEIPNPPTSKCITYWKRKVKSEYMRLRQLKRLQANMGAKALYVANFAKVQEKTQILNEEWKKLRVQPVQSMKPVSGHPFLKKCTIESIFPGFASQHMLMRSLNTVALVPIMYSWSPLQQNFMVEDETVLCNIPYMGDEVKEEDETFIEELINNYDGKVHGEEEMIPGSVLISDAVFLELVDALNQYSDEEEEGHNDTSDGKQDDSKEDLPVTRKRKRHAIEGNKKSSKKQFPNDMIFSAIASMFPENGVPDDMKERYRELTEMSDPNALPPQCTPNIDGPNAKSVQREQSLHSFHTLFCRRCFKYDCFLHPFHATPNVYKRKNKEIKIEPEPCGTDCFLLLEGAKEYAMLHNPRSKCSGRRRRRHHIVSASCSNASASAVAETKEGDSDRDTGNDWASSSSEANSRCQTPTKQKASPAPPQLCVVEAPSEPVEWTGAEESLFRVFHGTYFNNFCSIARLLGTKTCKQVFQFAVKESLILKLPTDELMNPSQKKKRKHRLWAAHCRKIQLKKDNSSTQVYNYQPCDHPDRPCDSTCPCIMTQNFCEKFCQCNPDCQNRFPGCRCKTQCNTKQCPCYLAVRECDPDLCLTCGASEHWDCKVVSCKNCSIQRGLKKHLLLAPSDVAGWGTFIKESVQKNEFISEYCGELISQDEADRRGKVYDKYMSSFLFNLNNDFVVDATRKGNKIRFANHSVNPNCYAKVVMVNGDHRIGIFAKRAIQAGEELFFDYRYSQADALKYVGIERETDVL
Chain of EZH1 (O75530 whole entry partner): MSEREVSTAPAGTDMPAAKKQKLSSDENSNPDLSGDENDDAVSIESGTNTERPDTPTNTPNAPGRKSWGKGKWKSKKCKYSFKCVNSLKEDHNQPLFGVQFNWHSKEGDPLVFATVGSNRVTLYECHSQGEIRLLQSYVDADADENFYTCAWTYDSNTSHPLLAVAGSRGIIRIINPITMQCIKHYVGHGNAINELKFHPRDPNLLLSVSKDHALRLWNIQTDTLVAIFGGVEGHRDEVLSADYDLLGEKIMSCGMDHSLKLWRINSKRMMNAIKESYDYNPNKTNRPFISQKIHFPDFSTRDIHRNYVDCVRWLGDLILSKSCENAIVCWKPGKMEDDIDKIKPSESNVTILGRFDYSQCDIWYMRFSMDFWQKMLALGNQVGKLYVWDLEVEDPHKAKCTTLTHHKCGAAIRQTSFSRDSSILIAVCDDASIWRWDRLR
Chain of EZH1 (Q15022 whole entry partner): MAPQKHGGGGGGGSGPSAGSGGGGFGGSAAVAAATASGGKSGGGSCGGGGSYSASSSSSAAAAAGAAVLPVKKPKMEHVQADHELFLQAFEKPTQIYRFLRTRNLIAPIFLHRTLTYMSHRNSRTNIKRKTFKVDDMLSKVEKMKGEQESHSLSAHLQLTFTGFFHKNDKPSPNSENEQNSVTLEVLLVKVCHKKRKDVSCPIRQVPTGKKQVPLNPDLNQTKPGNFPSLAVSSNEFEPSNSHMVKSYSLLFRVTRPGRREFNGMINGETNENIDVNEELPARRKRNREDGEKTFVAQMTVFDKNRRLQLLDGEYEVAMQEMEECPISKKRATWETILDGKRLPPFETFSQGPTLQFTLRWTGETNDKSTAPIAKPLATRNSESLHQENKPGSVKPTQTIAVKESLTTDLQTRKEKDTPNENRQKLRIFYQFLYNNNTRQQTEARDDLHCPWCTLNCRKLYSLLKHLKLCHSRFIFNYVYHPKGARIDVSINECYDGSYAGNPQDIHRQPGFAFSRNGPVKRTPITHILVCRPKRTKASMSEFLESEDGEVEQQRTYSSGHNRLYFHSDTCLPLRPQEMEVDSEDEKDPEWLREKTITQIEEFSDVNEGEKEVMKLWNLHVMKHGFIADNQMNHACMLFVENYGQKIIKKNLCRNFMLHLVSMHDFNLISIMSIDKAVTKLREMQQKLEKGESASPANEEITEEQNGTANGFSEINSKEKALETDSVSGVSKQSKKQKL
Chain of EZH2 (Q15910 whole entry): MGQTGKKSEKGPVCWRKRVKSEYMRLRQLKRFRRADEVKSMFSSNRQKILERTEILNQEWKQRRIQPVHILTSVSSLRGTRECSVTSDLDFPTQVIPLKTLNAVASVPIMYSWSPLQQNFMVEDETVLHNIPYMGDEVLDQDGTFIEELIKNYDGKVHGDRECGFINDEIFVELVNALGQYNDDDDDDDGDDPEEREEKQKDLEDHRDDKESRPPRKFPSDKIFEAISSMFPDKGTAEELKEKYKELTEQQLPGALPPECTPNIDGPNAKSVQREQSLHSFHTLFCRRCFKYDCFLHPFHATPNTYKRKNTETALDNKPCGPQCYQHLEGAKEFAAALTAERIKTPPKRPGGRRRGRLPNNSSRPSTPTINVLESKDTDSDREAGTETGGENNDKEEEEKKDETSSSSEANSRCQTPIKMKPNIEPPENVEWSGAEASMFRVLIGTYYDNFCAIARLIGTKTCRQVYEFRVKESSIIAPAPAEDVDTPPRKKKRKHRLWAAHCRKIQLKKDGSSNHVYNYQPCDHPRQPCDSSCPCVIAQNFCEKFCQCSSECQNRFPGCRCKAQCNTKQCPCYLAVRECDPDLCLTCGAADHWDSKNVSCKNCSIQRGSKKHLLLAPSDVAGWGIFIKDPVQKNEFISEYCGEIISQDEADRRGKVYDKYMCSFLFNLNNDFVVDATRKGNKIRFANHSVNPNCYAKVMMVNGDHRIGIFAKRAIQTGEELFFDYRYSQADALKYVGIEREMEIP
Chain of EZH2 (O75530 whole entry partner): as the sequence (O75530 whole entry partner) above
Chain of EZH2 (Q15022 whole entry partner): as the sequence (Q15022 whole entry partner) above

inhibitory activity (EZH2): high potency
mode of inhibition (EZH2): irreversible inhibitor
time dependence (EZH2): time dependency
inhibitory activity (EZH1): high potency
mode of inhibition (EZH1): irreversible inhibitor
time dependence (EZH1): time dependency
Structure (SMILES): C=CC(=O)N(c1cc(-c2ccc(N3CCN(C)CC3)nc2)cc(C(=O)NCc2c(CCC)cc(C)[nH]c2=O)c1C)C1CCOCC1 [EZ-53]
